Test results: patent US20080103205A1, “Pesticidal compositions and methods of use” (priority 2006, published 2008)
Where two headings read alike, the source gives them in different places.

Tests used:
[1] = test system: European corn borer (Ostrinia nubilalis); test: Diet surface test on European corn borer larvae (2nd instar); type: in vivo; conditions: for mortality at 6.25 ppm / mortality at 12.5 ppm / mortality at 25 ppm / mortality at 50 ppm: Ostrinia nubilalis
Method: Concentrations of 6.25, 12.5, 25, or 50 ppm AT blocker were prepared in 95% ethyl alcohol (EtOH). 95% EtOH alone served as control. European corn borer (ECB) diet prepared from the powdered diet supplied by French Agricultural Research, Inc. Diet (1-2 ml) was poured into small cups and allowed to cool to room temperature. Test solution (100 ul) was placed onto the diet surface and allowed to evaporate the solvent. Each concentration of chemical had 2 sets of 10 cups each. One late 2nd instar larva was placed in each cup and covered with lid having perforations for aeration. Cups were placed in an incubator for 7 days at 25±1° C. and 70±5% RH. After seven days, the weight of each larva was taken and any mortality was recorded. Then, the surviving larvae were transferred to fresh diet cups holding sufficient diet (5-6 ml) without chemicals and incubated at 25±1° C. and 70±5% RH until pupation. Weights of larvae were taken 14 days after transferring to fresh diet (21 days after start of treatment). Finally, the number of days until pupation was recorded.
Anion transporters caused larval death and a reduction in weight gain within 7 days exposure. The effect persisted for 2 weeks time on untreated diet, but total time to pupation was relatively unaffected.

Meloidogyne incognita = test: Toxicity test, J2 juveniles of Meloidogyne incognita, 96 well micro plate; type: in vivo; conditions: Meloidogyne incognita
Method: Methodology: Toxicity tests were conducted using J2 juveniles of Meloidogyne incognita adult Caenorhabditis elegans collected from nematode-infested tomato plant roots and culture Petri plates, respectively. Test concentrations of 50, 100, 200, 300, or 400 ppm were prepared in 0.2% dimethylsulfoxide (DMSO) in tap water. Aliquots (300 microliters (ul)) were applied to a 96 well micro plate and a 20 ul aqueous solution containing nematodes was added. The number of nematodes in 20 ul ranged from 17 to 30. Micro plates were sealed with Parafilm™ and incubated at room temperature. Similar tests conducted with 0.2% DMSO in tap water served as controls. Nematode mortality was checked at 24, 48, 72, 120, and 168 hr after incubation. Nematodes that were motionless for 30 sec when observed under a stereomicroscope were considered paralyzed and included in mortality counts. Each concentration was replicated five times and mean percent mortality was calculated after correcting for control mortality using Abbott's formula.
Data Analysis: Mortality data were analyzed using PROC PROBIT (SAS) program and LC50 values were estimated.

[2] = 6.25 ppm, 7 days after feeding, 10 larvae
[3] = 6.25 ppm, 7 days after feeding, 10 larvae treated
[4] = 6.25 ppm, 21 days after feeding
[5] = 6.25 ppm, 21 days after feeding, 10 larvae
[6] = 6.25 ppm, 21 days after feeding, 10 larvae treated
[7] = 12.5 ppm, 7 days after feeding, 10 larvae
[8] = 12.5 ppm, 7 days after feeding, 10 larvae treated
[9] = 12.5 ppm, 21 days after feeding
[10] = 12.5 ppm, 21 days after feeding, 10 larvae
[11] = 12.5 ppm, 21 days after feeding, 10 larvae treated
[12] = 25 ppm, 7 days after feeding, 10 larvae
[13] = 25 ppm, 7 days after feeding, 10 larvae treated
[14] = 25 ppm, 21 days after feeding, 10 larvae treated
[15] = 50 ppm, 7 days after feeding, 10 larvae treated
[16] = 168 h, 6.25 ppm, 7 days after feeding
[17] = 168 h, 12.5 ppm, 7 days after feeding
[18] = 504 h, 6.25 ppm, 21 days after feeding
[19] = 504 h, 12.5 ppm, 21 days after feeding
[20] = 504 h, 50 ppm, 21 days after feeding
[21] = 24 h, read-out: Corrected Mortality (%)
[22] = 48 h, read-out: Corrected Mortality (%)
[23] = 72 h, read-out: Corrected Mortality (%)
[24] = 120 h, read-out: Corrected Mortality (%)
[25] = 168 h, read-out: Corrected Mortality (%)

CC1(C2CCCC2)Cc2cc(OCC(=O)O)c(Cl)c(Cl)c2C1=O (single isomer, unassigned; (+)) [IAA-94, (+)(2-cyclopentyl-6,7-dichloro-2-methyl-1-oxo-5-indanyloxy) acetic acid]
Mean wt of survived larvae ([1]; 6.25 ppm, 7 days after feeding): 45.52 mg
Mean wt of survived larvae, mg ([1]; 6.25 ppm, 7 days after feeding): 44.64 (10) mg
No. dead [1, 2]: 0
# surviving [1, 3]: 10
No. dead [1, 3]: 0
Mean wt of survived larvae [1, 4]: 138.56 mg
Mean wt of survived larvae, mg [1, 4]: 150.90 (10) mg
No. dead [1, 5]: 0
# surviving [1, 6]: 10
No. dead [1, 6]: 0
Mean wt of survived larvae ([1]; 12.5 ppm, 7 days after feeding): 33.62 mg
Mean wt of survived larvae, mg ([1]; 12.5 ppm, 7 days after feeding): 34.40 (10) mg
No. dead [1, 7]: 0
# surviving [1, 8]: 10
No. dead [1, 8]: 0
Mean wt of survived larvae [1, 9]: 108.84 mg
Mean wt of survived larvae, mg [1, 9]: 115.14 (10) mg
No. dead [1, 10]: 0
# surviving [1, 11]: 10
No. dead [1, 11]: 0
Mean wt of survived larvae ([1]; 25 ppm, 7 days after feeding): 25.97 mg
Mean wt of survived larvae, mg ([1]; 25 ppm, 7 days after feeding): 23.96 (10) mg
No. dead [1, 12]: 0
# surviving [1, 13]: 8
No. dead [1, 13]: 2
Mean wt of survived larvae ([1]; 25 ppm, 21 days after feeding): 4.85 mg
Mean wt of survived larvae, mg ([1]; 25 ppm, 21 days after feeding): 65.60 (8) mg
No. dead ([1]; 25 ppm, 21 days after feeding, 10 larvae): 2
# surviving [1, 14]: 8
No. dead [1, 14]: 2
Mean wt of survived larvae ([1]; 50 ppm, 7 days after feeding): 11.90 mg
Mean wt of survived larvae, mg ([1]; 50 ppm, 7 days after feeding): 12.93 (6) mg
No. dead ([1]; 50 ppm, 7 days after feeding, 10 larvae): 4
# surviving [1, 15]: 2
No. dead [1, 15]: 8
Mean wt of survived larvae ([1]; 50 ppm, 21 days after feeding): 0 mg
Mean wt of survived larvae, mg ([1]; 50 ppm, 21 days after feeding): 24.0 (2) mg
No. dead ([1]; 50 ppm, 21 days after feeding, 10 larvae): 8
No. dead ([1]; 50 ppm, 21 days after feeding, 10 larvae treated): 10
mortality at 6.25 ppm [1, 16]: 0%
mortality at 12.5 ppm [1, 17]: 0%
mortality at 6.25 ppm [1, 18]: 0%
mortality at 12.5 ppm [1, 19]: 0%
mortality at 25 ppm ([1]; 504 h, 25 ppm, 21 days after feeding): 20%
mortality at 50 ppm [1, 20]: 80%
mortality at 50 ppm (Meloidogyne incognita; 24 h): 8%
mortality at 100 ppm (Meloidogyne incognita; 24 h): 10%
mortality at 200 ppm (Meloidogyne incognita; 24 h): 14%
mortality at 300 ppm (Meloidogyne incognita; 24 h): 20%
mortality at 400 ppm (Meloidogyne incognita; 24 h): 24%
mortality at 50 ppm (Meloidogyne incognita; [21]): 5%
mortality at 100 ppm (Meloidogyne incognita; [21]): 7%
mortality at 200 ppm (Meloidogyne incognita; [21]): 11%
mortality at 300 ppm (Meloidogyne incognita; [21]): 19%
mortality at 400 ppm (Meloidogyne incognita; [21]): 22%
mortality at 50 ppm (Meloidogyne incognita; 48 h): 17%
mortality at 100 ppm (Meloidogyne incognita; 48 h): 22%
mortality at 200 ppm (Meloidogyne incognita; 48 h): 34%
mortality at 300 ppm (Meloidogyne incognita; 48 h): 38%
mortality at 400 ppm (Meloidogyne incognita; 48 h): 43%
mortality at 50 ppm (Meloidogyne incognita; [22]): 12%
mortality at 100 ppm (Meloidogyne incognita; [22]): 17%
mortality at 200 ppm (Meloidogyne incognita; [22]): 30%
mortality at 300 ppm (Meloidogyne incognita; [22]): 34%
mortality at 400 ppm (Meloidogyne incognita; [22]): 39%
mortality at 50 ppm (Meloidogyne incognita; 72 h): 30%
mortality at 100 ppm (Meloidogyne incognita; 72 h): 38%
mortality at 200 ppm (Meloidogyne incognita; 72 h): 61%
mortality at 300 ppm (Meloidogyne incognita; 72 h): 65%
mortality at 400 ppm (Meloidogyne incognita; 72 h): 70%
mortality at 50 ppm (Meloidogyne incognita; [23]): 22%
mortality at 100 ppm (Meloidogyne incognita; [23]): 31%
mortality at 200 ppm (Meloidogyne incognita; [23]): 57%
mortality at 300 ppm (Meloidogyne incognita; [23]): 61%
mortality at 400 ppm (Meloidogyne incognita; [23]): 67%
mortality at 50 ppm (Meloidogyne incognita; 120 h): 51%
mortality at 100 ppm (Meloidogyne incognita; 120 h): 61%
mortality at 200 ppm (Meloidogyne incognita; 120 h): 83%
mortality at 300 ppm (Meloidogyne incognita; 120 h): 90%
mortality at 400 ppm (Meloidogyne incognita; 120 h): 97%
mortality at 50 ppm (Meloidogyne incognita; [24]): 45%
mortality at 100 ppm (Meloidogyne incognita; [24]): 56%
mortality at 200 ppm (Meloidogyne incognita; [24]): 81%
mortality at 300 ppm (Meloidogyne incognita; [24]): 89%
mortality at 400 ppm (Meloidogyne incognita; [24]): 97%
mortality at 50 ppm (Meloidogyne incognita; 168 h): 74%
mortality at 100 ppm (Meloidogyne incognita; 168 h): 85%
mortality at 200 ppm (Meloidogyne incognita; 168 h): 99%
mortality at 300 ppm (Meloidogyne incognita; 168 h): 100%
mortality at 400 ppm (Meloidogyne incognita; 168 h): 100%
mortality at 50 ppm (Meloidogyne incognita; [25]): 71%
mortality at 100 ppm (Meloidogyne incognita; [25]): 83%
mortality at 200 ppm (Meloidogyne incognita; [25]): 99%
mortality at 300 ppm (Meloidogyne incognita; [25]): 100%
mortality at 400 ppm (Meloidogyne incognita; [25]): 100%

O=C(O)c1c2ccccc2cc2ccccc12 [9-AC, anthracene-9-carboxylic acid]
No. dead [1, 2]: 0
No. dead [1, 5]: 0
No. dead [1, 7]: 0
No. dead [1, 10]: 0
Days for pupation ([1]; 25 ppm): 26.0 days
No. dead [1, 12]: 0
mortality at 6.25 ppm [1, 16]: 0%
mortality at 12.5 ppm [1, 17]: 0%
mortality at 25 ppm ([1]; 168 h, 25 ppm, 7 days after feeding): 0%
mortality at 6.25 ppm [1, 18]: 0%
mortality at 12.5 ppm [1, 19]: 0%
mortality at 50 ppm [1, 20]: 60%
mortality at 50 ppm (Meloidogyne incognita; 24 h): 11%
mortality at 100 ppm (Meloidogyne incognita; 24 h): 12%
mortality at 200 ppm (Meloidogyne incognita; 24 h): 13%
mortality at 300 ppm (Meloidogyne incognita; 24 h): 16%
mortality at 400 ppm (Meloidogyne incognita; 24 h): 23%
mortality at 50 ppm (Meloidogyne incognita; [21]): 10%
mortality at 100 ppm (Meloidogyne incognita; [21]): 11%
mortality at 200 ppm (Meloidogyne incognita; [21]): 12%
mortality at 300 ppm (Meloidogyne incognita; [21]): 15%
mortality at 400 ppm (Meloidogyne incognita; [21]): 22%
mortality at 50 ppm (Meloidogyne incognita; 48 h): 21%
mortality at 100 ppm (Meloidogyne incognita; 48 h): 27%
mortality at 200 ppm (Meloidogyne incognita; 48 h): 28%
mortality at 300 ppm (Meloidogyne incognita; 48 h): 37%
mortality at 400 ppm (Meloidogyne incognita; 48 h): 49%
mortality at 50 ppm (Meloidogyne incognita; [22]): 17%
mortality at 100 ppm (Meloidogyne incognita; [22]): 23%
mortality at 200 ppm (Meloidogyne incognita; [22]): 24%
mortality at 300 ppm (Meloidogyne incognita; [22]): 34%
mortality at 400 ppm (Meloidogyne incognita; [22]): 46%
mortality at 50 ppm (Meloidogyne incognita; 72 h): 36%
mortality at 100 ppm (Meloidogyne incognita; 72 h): 43%
mortality at 200 ppm (Meloidogyne incognita; 72 h): 49%
mortality at 300 ppm (Meloidogyne incognita; 72 h): 60%
mortality at 400 ppm (Meloidogyne incognita; 72 h): 74%
mortality at 50 ppm (Meloidogyne incognita; [23]): 32%
mortality at 100 ppm (Meloidogyne incognita; [23]): 39%
mortality at 200 ppm (Meloidogyne incognita; [23]): 46%
mortality at 300 ppm (Meloidogyne incognita; [23]): 57%
mortality at 400 ppm (Meloidogyne incognita; [23]): 72%
mortality at 50 ppm (Meloidogyne incognita; 120 h): 58%
mortality at 100 ppm (Meloidogyne incognita; 120 h): 65%
mortality at 200 ppm (Meloidogyne incognita; 120 h): 67%
mortality at 300 ppm (Meloidogyne incognita; 120 h): 84%
mortality at 400 ppm (Meloidogyne incognita; 120 h): 97%
mortality at 50 ppm (Meloidogyne incognita; [24]): 54%
mortality at 100 ppm (Meloidogyne incognita; [24]): 62%
mortality at 200 ppm (Meloidogyne incognita; [24]): 64%
mortality at 300 ppm (Meloidogyne incognita; [24]): 83%
mortality at 400 ppm (Meloidogyne incognita; [24]): 97%
mortality at 50 ppm (Meloidogyne incognita; 168 h): 81%
mortality at 100 ppm (Meloidogyne incognita; 168 h): 86%
mortality at 200 ppm (Meloidogyne incognita; 168 h): 91%
mortality at 300 ppm (Meloidogyne incognita; 168 h): 100%
mortality at 400 ppm (Meloidogyne incognita; 168 h): 100%
mortality at 50 ppm (Meloidogyne incognita; [25]): 79%
mortality at 100 ppm (Meloidogyne incognita; [25]): 84%
mortality at 200 ppm (Meloidogyne incognita; [25]): 89%
mortality at 300 ppm (Meloidogyne incognita; [25]): 100%
mortality at 400 ppm (Meloidogyne incognita; [25]): 100%
